Assay results as given in US7160901B2, “Substituted indolinones, preparation thereof and their use as pharmaceutical compositions” (Boehringer Ingelheim Pharma GmbH & Co. KG, priority 2000, dated 2007).
Where two headings read alike, the source gives them in different places.

Tested on: Leiomyosarcoma tumour cell line SK-UT-1B
Assay: Test 1: inhibition of the proliferation of cultivated human tumour cells (14C-thymidine incorporation), SK-UT-1B
Format: cell-based
Conditions: in vitro Test 1, SK-UT-1B cells, 48 hours' incubation, then 14C-thymidine for a further 24 hours, IC50 of inhibition of incorporated 14C-thymidine, read-out: Inhibition of SKUT-1B proliferation
Source text: Inhibition of the Proliferation of Cultivated Human Tumour Cells
Cells of the Leiomyosarcoma tumour cell line SK-UT-1B or non-small-cell lung tumour cell line NCI-H460 (obtained from the American Type Culture Collection (ATCC)) were cultivated in Minimum Essential Medium with non-essential amino acids (Gibco), supplemented with sodium pyruvate (1 mMol), glutamine (2 mMol) and 10% foetal calf serum (Gibco) or RPMI1640 Medium (Gibco) and 10% foetal calf serum (Gibco) and harvested in the logarithmic growth phase. Then the SK-UT-1B cells were placed in Cytostar® multi-well plates (Amersham) at a density of 4000 cells per well or 3000 cells per well for NCI-H460 cells and incubated overnight in an incubator. Various concentrations of the compounds (dissolved in DMSO; final concentration: 0.1%) were added to the cells. After 48 hours' incubation, ^14C-thymidine (Amersham) was added to each well and incubation was continued for a further 24 hours. The quantity of ^14C-thymidine which was incorporated into the tumour cells in the presence of the inhibitor and which represents the number of cells in the S phase was measured in a Wallace 1450 Microbeta Liquid Scintillation Counter. IC50 values for the inhibition of the proliferation (=inhibition of incorporated ^14C-thymidine) were calculated, correcting for the background radiation. All the measurements were done twice.
The following Table contains the results obtained with the in vitro Test 1 (++ denotes <0.01 μM, + denotes 0.01–1.0 μM): […]

Row | IC50 (Homo sapiens, Skut1B) [nM] | IC50 [nM] | SMILES
1 | 10 to 1000 |  | CCS(=O)(=O)Nc1ccc2c(c1)/C(=C(/Nc1ccc(CN3CCCC3)cc1)c1ccccc1)C(=O)N2 [Example 144, (Z)-3-{1-[4-(pyrrolidin-1-ylmethyl)-phenylamino]-1-phenyl-methylidene}-5-ethylsulphonylamino-2-indolinone]
2 | < 10 |  | O=C1Nc2ccc(NS(=O)(=O)c3cccnc3)cc2/C1=C(/Nc1ccc(CN2CCCC2)cc1)c1ccccc1 [Example 80, (Z)-3-{1-[4-(pyrrolidin-1-ylmethyl)-phenylamino]-1-phenyl-methylidene}-5-(pyridin-3-ylsulphonylamino)-2-indolinone]
3 | 10 to 1000 |  | CCCS(=O)(=O)Nc1ccc2c(c1)/C(=C(/Nc1ccc(CN3CCCC3)cc1)c1ccccc1)C(=O)N2 [Example 143, (Z)-3-{1-[4-(pyrrolidin-1-ylmethyl)-phenylamino]-1-phenyl-methylidene}-5-propylsulphonylamino-2-indolinone]
4 | 10 to 1000 |  | O=C1Nc2ccc(NS(=O)(=O)C3CC3)cc2/C1=C(/Nc1ccc(CN2CCCC2)cc1)c1ccccc1 [Example 142, (Z)-3-{1-[4-(pyrrolidin-1-ylmethyl)-phenylamino]-1-phenyl-methylidene}-5-cyclopropylsulphonylamino-2-indolinone]
5 | < 10 |  | O=C1Nc2ccc(NS(=O)(=O)C3CC3)cc2/C1=C(/Nc1ccc(CN2CCCCC2)cc1)c1ccccc1 [Example 120, (Z)-3-{1-[4-(piperidinomethyl)-phenylamino]-1-phenyl-methylidene}-5-cyclopropylsulphonylamino-2-indolinone]
6 | 10 to 1000 |  | O=C1Nc2ccc(NS(=O)(=O)Cc3ccccc3)cc2/C1=C(/Nc1ccc(CN2CCCC2)cc1)c1ccccc1 [Example 58, (Z)-3-{1-[4-(pyrrolidin-1-ylmethyl)-phenylamino]-1-phenyl-methylidene}-5-benzylsulphonylamino-2-indolinone]
7 | < 10 |  | CCS(=O)(=O)Nc1ccc2c(c1)/C(=C(/Nc1ccc(CN3CCCCC3)cc1)c1ccccc1)C(=O)N2 [Example 99, (Z)-3-{1-[4-(piperidinomethyl)-phenylamino]-1-phenyl-methylidene}-5-ethylsulphonylamino-2-indolinone]
8 | < 10 |  | CC(C)S(=O)(=O)Nc1ccc2c(c1)/C(=C(/Nc1ccc(CN3CCCCC3)cc1)c1ccccc1)C(=O)N2 [Example 101, (Z)-3-{1-[4-(piperidinomethyl)-phenylamino]-1-phenyl-methylidene}-5-isopropylsulphonylamino-2-indolinone]
9 | 10 to 1000 |  | Cc1noc(C)c1S(=O)(=O)Nc1ccc2c(c1)/C(=C(/Nc1ccc(CN3CCCCC3)cc1)c1ccccc1)C(=O)N2 [Example 117, (Z)-3-{1-[4-(piperidinomethyl)-phenylamino]-1-phenyl-methylidene}-5-(3,5-dimethylisoxazol-4-ylsulphonylamino)-2-indolinone]

Second part, the compound before the results:

Row | SMILES | IC50 (Homo sapiens, Skut1B) [nM] | IC50 [nM]
10 | CN(c1ccc(N/C(=C2\C(=O)Nc3ccc(NS(=O)(=O)c4ccccc4)cc32)c2ccccc2)cc1)S(C)(=O)=O [Example 42, (Z)-3-[1-(4-(N-methyl-N-methylsulphonyl-amino)-phenylamino)-1-phenyl-methylidene]-5-phenylsulphonylamino-2-indolinone] | 10 to 1000 | 
11 | O=C1Nc2ccc(N(c3cccnc3)S(=O)(=O)c3ccccc3)cc2/C1=C(/Nc1ccc(CN2CCCCC2)cc1)c1ccccc1 [Example 134, (Z)-3-{1-[4-(piperidinomethyl)-phenylamino]-1-phenyl-methylidene}-5-(pyridin-3-ylphenylsulphonylamino)-2-indolinone] | < 10 | 
12 | O=C1Nc2ccc(NS(=O)(=O)c3ccccc3)cc2/C1=C(/Nc1ccc(C(=O)NCc2ccccc2)cc1)c1ccccc1 [Example 158, (Z)-3-{1-[4-(benzylaminocarbonyl)-phenylamino]-1-phenyl-methylidene}-5-phenylsulphonylamino-2-indolinone] | 10 to 1000 | 
13 | CC(=O)N(CC(=O)N(C)C)c1ccc(N/C(=C2\C(=O)Nc3ccc(NS(=O)(=O)c4ccccc4)cc32)c2ccccc2)cc1 [Example 164, (Z)-3-{1-[4-(N-dimethylaminocarbonylmethyl-N-acetyl-amino)-phenylamino]-1-phenyl-methylidene}-5-phenylsulphonylamino-2-indolinone] | 10 to 1000 | 
14 | O=C1Nc2ccc(NS(=O)(=O)c3ccccc3)cc2/C1=C(/Nc1ccccc1)c1ccccc1 [Example 22, (Z)-3-(1-phenylamino-1-phenyl-methylidene)-5-phenylsulphonylamino-2-indolinone] | 10 to 1000 | 
15 | CN(C)Cc1ccc(N/C(=C2\C(=O)Nc3ccc(NS(=O)(=O)c4ccccc4)cc32)c2ccccc2)cc1 [Example 36, (Z)-3-[1-(4-dimethylaminomethyl-phenylamino)-1-phenyl-methylidene]-5-phenylsulphonylamino-2-indole] |  | < 10
16 | O=C1Nc2ccc(NS(=O)(=O)c3cccc4ccccc34)cc2/C1=C(/Nc1ccc(CN2CCCCC2)cc1)c1ccccc1 [Example 104, (Z)-3-{1-[4-(piperidinomethyl)-phenylamino]-1-phenyl-methylidene}-5-(naphthalin-1-ylsulphonylamino)-2-indolinone] | < 10 | 
17 | O=C1Nc2ccc(NS(=O)(=O)c3ccccc3)cc2/C1=C(/Nc1ccc(Cl)cc1)c1ccccc1 [Example 23, (Z)-3-[1-(4-chlorophenylamino)-1-phenyl-methylidene]-5-phenylsulphonylamino-2-indolinone] | 10 to 1000 | 
18 | CN(C(=O)CN1CCCCC1)c1ccc(N/C(=C2\C(=O)Nc3ccc(NS(=O)(=O)c4ccccc4)cc32)c2ccccc2)cc1 [Example 56, (Z)-3-[1-(4-(N-methyl-N-piperidinomethylcarbonyl-amino)-phenylamino)-1-phenyl-methylidene]-5-phenylsulphonylamino-2-indolinone] | < 10 | 
19 | CN1CCN(Cc2ccc(N/C(=C3\C(=O)Nc4ccc(NS(=O)(=O)c5ccccc5)cc43)c3ccccc3)cc2)CC1 [Example 9, (Z)-3-{1-[4-(4-methylpiperazinomethyl)-phenylamino]-1-phenyl-methylidene}-5-phenylsulphonylamino-2-indolinone] | 10 to 1000 | 
20 | CCS(=O)(=O)Nc1ccc2c(c1)/C(=C(/Nc1ccc(CCN(C)C)cc1)c1ccccc1)C(=O)N2 [Example 72, (Z)-3-{1-[4-(2-dimethylamino-ethyl)-phenylamino]-1-phenyl-methylidene}-5-ethylsulphonylamino-2-indolinone] | 10 to 1000 | 
21 | CCC(=O)NCCN(C(=O)CC)c1ccc(N/C(=C2\C(=O)Nc3ccc(NS(=O)(=O)c4ccccc4)cc32)c2ccccc2)cc1 [Example 31, (Z)-3-{1-[4-(N-(2-propionylamino-ethyl)-N-propionyl-amino)-phenylamino]-1-phenyl-methylidene}-5-phenylsulphonylamino-2-indolinone] | < 10 | 
22 | CC(=O)N(C)c1ccc(N/C(=C2\C(=O)Nc3ccc(NS(=O)(=O)c4ccccc4)cc32)c2ccccc2)cc1 [Example 20, (Z)-3-{1-[4-(N-methyl-N-acetyl-amino)-phenylamino]-1-phenyl-methylidene}-5-phenylsulphonylamino-2-indolinone] | 10 to 1000 | 
23 | CCS(=O)(=O)Nc1ccc2c(c1)/C(=C(/Nc1ccc(CN(C)Cc3ccccc3)cc1)c1ccccc1)C(=O)N2 [Example 71, (Z)-3-{1-[4-(N-benzyl-N-methyl-aminomethyl)-phenylamino]-1-phenyl-methylidene}-5-ethylsulphonylamino-2-indolinone] | 10 to 1000 | 
